# Assay results as given in US20100120762A1, “Triazine derivatives as inhibitors of phosphodiesterases” (WYETH, priority 2008, published 2010).
# Tests used:
# PDE10A1 (AB 020593) = biological target: T1, PDE10A1 (AB 020593) (Homo sapiens, UniProt Q9Y233); assay: Inhibition of recombinant PDE10A (baculovirus/SF21 system); type: biochemical; details: recombinant cytosolic PDE10A, 0.1 μM [3H]-cAMP, 37° C., 30 minutes, SPA; read-out: PDE10A IC50
# T1 construct: made in house; host or cells: baculovirus / SF21 insect cells (gene synthesized by Entelechon GmbH)
# T1 sequence (Q9Y233 other isoform, or with tags, fused parts or gaps): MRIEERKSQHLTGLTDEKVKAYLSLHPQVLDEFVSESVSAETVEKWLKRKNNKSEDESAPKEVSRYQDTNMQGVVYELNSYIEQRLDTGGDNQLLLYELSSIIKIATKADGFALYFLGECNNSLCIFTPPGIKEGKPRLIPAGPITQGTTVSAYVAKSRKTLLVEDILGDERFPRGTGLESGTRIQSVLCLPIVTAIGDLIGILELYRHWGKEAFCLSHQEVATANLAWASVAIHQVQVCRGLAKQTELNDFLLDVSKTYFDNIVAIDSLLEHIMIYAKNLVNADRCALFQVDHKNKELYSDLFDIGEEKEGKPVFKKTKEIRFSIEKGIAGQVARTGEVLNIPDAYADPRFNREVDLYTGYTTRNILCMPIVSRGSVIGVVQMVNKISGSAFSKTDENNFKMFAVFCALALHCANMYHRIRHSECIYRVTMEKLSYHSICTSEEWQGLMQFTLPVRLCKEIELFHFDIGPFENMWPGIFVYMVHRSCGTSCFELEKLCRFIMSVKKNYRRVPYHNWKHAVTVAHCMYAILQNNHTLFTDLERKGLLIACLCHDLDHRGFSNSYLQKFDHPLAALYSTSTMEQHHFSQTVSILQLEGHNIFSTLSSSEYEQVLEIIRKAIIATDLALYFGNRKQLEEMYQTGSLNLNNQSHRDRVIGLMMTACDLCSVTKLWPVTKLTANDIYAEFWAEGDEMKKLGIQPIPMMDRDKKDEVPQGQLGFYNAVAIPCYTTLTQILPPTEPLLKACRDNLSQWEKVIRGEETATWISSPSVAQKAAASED
# Method in brief: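 Cytosolic PDE10A1 expressed in SF21 cells via baculovirus, incubated with 0.1 μM [3H]-cAMP in 50 mM Tris-HCl/5 mM MgCl2, pH 7.4, 30 min at 37 °C. SPA-bead scintillation read-out, with enzyme-free wells as background. IC50 from Hill plot, 2-parameter model.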
# PDE2A (NM002599) = biological target: T2, PDE2A (NM002599) (Homo sapiens, UniProt O00408); assay: Inhibition of recombinant PDE2A (expressed in baculovirus/SF21-cells); type: biochemical; details: recombinant PDE2A, 0.5 μM [3H]-cAMP, 1000 nM cGMP, 37° C., 30 minutes, SPA; read-out: PDE2A IC50
# T2 construct: made in house; host or cells: baculovirus / SF21 insect cells
# T2 sequence (O00408 whole entry): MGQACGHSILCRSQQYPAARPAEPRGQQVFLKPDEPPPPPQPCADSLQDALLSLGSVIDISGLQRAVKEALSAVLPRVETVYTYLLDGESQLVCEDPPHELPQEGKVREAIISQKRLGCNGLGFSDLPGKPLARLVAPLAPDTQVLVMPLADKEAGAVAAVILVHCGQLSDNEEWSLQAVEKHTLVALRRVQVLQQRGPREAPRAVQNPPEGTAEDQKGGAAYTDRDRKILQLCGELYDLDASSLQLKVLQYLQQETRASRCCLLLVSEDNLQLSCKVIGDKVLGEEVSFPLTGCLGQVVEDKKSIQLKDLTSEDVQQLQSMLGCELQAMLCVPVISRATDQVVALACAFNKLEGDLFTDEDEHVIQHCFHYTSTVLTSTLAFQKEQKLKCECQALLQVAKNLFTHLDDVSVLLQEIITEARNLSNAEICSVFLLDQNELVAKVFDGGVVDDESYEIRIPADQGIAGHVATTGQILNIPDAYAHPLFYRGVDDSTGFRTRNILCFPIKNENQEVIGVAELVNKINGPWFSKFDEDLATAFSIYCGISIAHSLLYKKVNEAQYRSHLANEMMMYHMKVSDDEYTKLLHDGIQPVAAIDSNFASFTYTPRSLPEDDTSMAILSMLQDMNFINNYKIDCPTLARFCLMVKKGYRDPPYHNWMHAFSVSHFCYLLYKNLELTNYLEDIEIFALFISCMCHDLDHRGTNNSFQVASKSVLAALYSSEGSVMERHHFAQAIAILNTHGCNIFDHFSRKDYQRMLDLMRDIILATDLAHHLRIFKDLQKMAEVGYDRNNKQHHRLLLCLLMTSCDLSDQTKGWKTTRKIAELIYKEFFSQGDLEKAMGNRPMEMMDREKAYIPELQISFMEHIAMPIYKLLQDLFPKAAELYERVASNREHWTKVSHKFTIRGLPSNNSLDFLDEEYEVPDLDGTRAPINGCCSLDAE
# Method in brief: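 Human PDE2A membrane fraction from baculovirus-infected SF21 cells; 0.5 μM [3H]-cAMP with 1000 nM cGMP as activator in 50 mM Tris-HCl/5 mM MgCl2 pH 7.4, 30 min at 37° C, SPA read-out. Non-specific activity measured without cGMP; IC50 by 2-parameter Hill fit.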
IC50 (PDE10A1 (AB 020593)) [nM],IC50 (PDE2A (NM002599)) [nM],melting point [°C],Compound
178,69.4,,"COc1ccc2nnc3c(C)nc(-c4cnccc4OC)n3c2n1 [Example 47, 2-methoxy-9-(4-methoxypyridin-3-yl)-7-methylimidazo[5,1-c]pyrido[2,3-e][1,2,4]triazine]"
216,73.7,,"COc1ccc2nnc3c(C)nc(-c4ccc(F)c(Cl)c4)n3c2n1 [Example 96, 9-(3-chloro-4-fluorophenyl)-2-methoxy-7-methylimidazo[5,1-c]pyrido[2,3-e][1,2,4]triazine]"
391,196,,"CCOc1ncccc1-c1nc(C)c2nnc3ccc(OC)nc3n12 [Example 14, 9-(2-ethoxypyridin-3-yl)-2-methoxy-7-methylimidazo[5,1-c]pyrido[2,3-e][1,2,4]triazine]"
40.9,2.2,,"COc1ccc(Cl)c(-c2nc(C)c3nnc4ccc(OC)nc4n23)c1 [Example 59, 9-(2-chloro-5-methoxyphenyl)-2-methoxy-7-methylimidazo[5,1-c]pyrido[2,3-e][1,2,4]triazine]"
59.4,41.6,,"CCc1ccccc1-c1nc(C)c2nnc3ccc(OC)nc3n12 [Example 35, 9-(2-ethylphenyl)-2-methoxy-7-methylimidazo[5,1-c]pyrido[2,3-e][1,2,4]triazine]"
617,243,,"CCOc1cccc(-c2nc(C)c3nnc4ccc(OC)nc4n23)c1F [Example 38, 9-(3-ethoxy-2-fluorophenyl)-2-methoxy-7-methylimidazo[5,1-c]pyrido[2,3-e][1,2,4]triazine]"
36.9,31.7,,"COc1ccc2nnc3c(C)nc(-c4ccncc4Cl)n3c2n1 [Example 45, 9-(3-chloropyridin-4-yl)-2-methoxy-7-methylimidazo[5,1-c]pyrido[2,3-e][1,2,4]triazine]"
62.8,52.6,,"COc1ccc(-c2nc(C)c3nnc4ccc(OC)nc4n23)c(Cl)c1 [Example 89, 9-(2-chloro-4-methoxyphenyl)-2-methoxy-7-methylimidazo[5,1-c]pyrido[2,3-e][1,2,4]triazine]"
21.2,5.32,,"COc1ccc2nnc3c(C)nc(-c4cc(F)ccc4Cl)n3c2n1 [Example 62, 9-(2-chloro-5-fluorophenyl)-2-methoxy-7-methylimidazo[5,1-c]pyrido[2,3-e][1,2,4]triazine]"
< 5000,751,,"COc1ccc2nnc3c(C)nc(-c4cccnc4OC(C)C)n3c2n1 [Example 42, 2-methoxy-7-methyl-9-[2-(1-methylethoxy)pyridin-3-yl]imidazo[5,1-c]pyrido[2,3-e][1,2,4]triazine]"

# Continued, compound first:
Compound,IC50 (PDE10A1 (AB 020593)) [nM],IC50 (PDE2A (NM002599)) [nM],melting point [°C]
"CCc1nc(C)c2nnc3ccc(OC)nc3n12 [Example 2, 1-ethyl-8-methoxy-3-methyl-imidazo[5,1-c]pyrido[2,3-e][1,2,4]triazine]",297,399,202 to 203
"Cc1cn(-c2ccc3nnc4c(C)nc(-c5cc(Cl)ccc5Cl)n4c3n2)c(-c2cc(Cl)ccc2Cl)n1 [Example 119, 1-(2,5-dichloro-phenyl)-8-[2-(2,5-dichloro-phenyl)-4-methyl-imidazol-1-yl]-3-methyl-imidazo[5,1-c]pyrido[2,3-e][1,2,4]triazine]",240,41,130
"CCC(C)c1nc(C)c2nnc3ccc(OC)nc3n12 (centres unmarked) [Example 12, 8-methoxy-3-methyl-1-(sec-butyl)-imidazo[5,1-c]-pyrido[2,3-e][1,2,4]triazine]",94.8,136,157 to 159
"Cc1nc(-c2cc(Cl)ccc2Cl)n2c1nnc1ccc(Cl)nc12 [Example 118, 8-chloro-1-(2,5-dichloro-phenyl)-3-methyl-imidazo[5,1-c]pyrido[2,3-e][1,2,4]triazine]",228,11.8,151 to 154
"COc1ccc2nnc3c(C4CC4)nc(-c4ccccn4)n3c2n1 [Example 122, 3-Cyclopropyl-8-methoxy-1-pyridin-2-yl-imidazo[5,1-c]pyrido[2,3-e][1,2,4]triazine]",8100,5190,162 to 164
"COc1ccc2nnc3c(C)nc(C4CCCCC4)n3c2n1 [Example 11, 8-methoxy-3-methyl-1-(cyclohexyl)-imidazo[5,1-c]-pyrido[2,3-e][1,2,4]triazine]",41.4,56.3,174 to 177
"c1ccc(-c2ncn3c2nnc2cccnc23)cc1 [Example 125, 3-phenyl-imidazo[5,1-c]pyrido[2,3-e][1,2,4]triazine]",> 1000,> 1000,225 to 227
"CCCc1nc(C)c2nnc3ccc(OC)nc3n12 [Example 1, 8-methoxy-3-methyl-1-propyl-imidazo[5,1-c]-pyrido[2,3-e][1,2,4]triazine]",102,88.8,163 to 165
"COc1ccnc2c1nnc1c(C)nc(-c3cc(Cl)ccc3Cl)n12 [Example 113, 9-(2,5-dichlorophenyl)-4-methoxy-7-methylimidazo[5,1-c]pyrido[2,3-e][1,2,4]triazine]",3.01,171,
"COc1ccc2nnc3c(C)nc(-c4ccncc4)n3c2n1 [Example 44, 2-methoxy-7-methyl-9-pyridin-4-ylimidazo[5,1-c]pyrido[2,3-e][1,2,4]triazine]",348,477,
"1-(2-Chloro-pyridin-4-yl)-8-methoxy-3-methyl-imidazo[5,1-c]pyrido[2,3-e][1,2,4]triazine [Example 109]",215,698,
"COc1ccc2nnc3c(C)nc(-c4c(C)nn(C)c4C)n3c2n1 [Example 65, 2-methoxy-7-methyl-9-(1,3,5-trimethyl-1H-pyrazol-4-yl)imidazo[5,1-c]pyrido[2,3-e][1,2,4]triazine]",120,22.9,
"COc1ccc2nnc3c(C)nc(-c4ccoc4)n3c2n1 [Example 78, 9-furan-3-yl-2-methoxy-7-methylimidazo[5,1-c]pyrido[2,3-e][1,2,4]triazine]",482,1390,
"COc1ccc2nnc3c(C)nc(-c4cc(Cl)cc(Cl)c4)n3c2n1 [Example 97, 9-(3,5-dichlorophenyl)-2-methoxy-7-methylimidazo[5,1-c]pyrido[2,3-e][1,2,4]triazine]",329,460,
"COc1ccc2nnc3c(C)nc(-c4cc(C(F)(F)F)ccc4Cl)n3c2n1 [Example 72, 9-(2-chloro-5-(trifluoromethyl)phenyl)-2-methoxy-7-methylimidazo[5,1-c]pyrido[2,3-e][1,2,4]triazine]",282,24.9,
"COc1ccc2nnc3c(C)nc(-c4cccc(OC(F)(F)F)c4)n3c2n1 [Example 25, 2-methoxy-7-methyl-9-[3-(trifluoromethoxy)phenyl]imidazo[5,1-c]pyrido[2,3-e][1,2,4]triazine]",> 1000,348,
"COc1cncc(-c2nc(C)c3nnc4ccc(OC)nc4n23)c1 [Example 40, 2-methoxy-9-(5-methoxypyridin-3-yl)-7-methylimidazo[5,1-c]pyrido[2,3-e][1,2,4]triazine]",91.3,14,
